Reference: paper PMC5848469 (Combinatorial chemistry & high throughput screening, 2015)

Legend:
KIT = KIT (Homo sapiens, UniProt P10721); experiment: Kinase active site-directed competition binding assay; settings: read-out: Percent Control at 10μM
hookworm tubulin = settings: cited from earlier work
mammalian tubulin = settings: fold less potency than on hookworm tubulin; cited from earlier work
KIT (D816V) = KIT (D816V) (Homo sapiens, UniProt P10721, D816V); experiment: Kinase active site-directed competition binding assay; settings: read-out: Percent Control at 10μM
KIT (D816V), sequence (P10721 26-976 D816V): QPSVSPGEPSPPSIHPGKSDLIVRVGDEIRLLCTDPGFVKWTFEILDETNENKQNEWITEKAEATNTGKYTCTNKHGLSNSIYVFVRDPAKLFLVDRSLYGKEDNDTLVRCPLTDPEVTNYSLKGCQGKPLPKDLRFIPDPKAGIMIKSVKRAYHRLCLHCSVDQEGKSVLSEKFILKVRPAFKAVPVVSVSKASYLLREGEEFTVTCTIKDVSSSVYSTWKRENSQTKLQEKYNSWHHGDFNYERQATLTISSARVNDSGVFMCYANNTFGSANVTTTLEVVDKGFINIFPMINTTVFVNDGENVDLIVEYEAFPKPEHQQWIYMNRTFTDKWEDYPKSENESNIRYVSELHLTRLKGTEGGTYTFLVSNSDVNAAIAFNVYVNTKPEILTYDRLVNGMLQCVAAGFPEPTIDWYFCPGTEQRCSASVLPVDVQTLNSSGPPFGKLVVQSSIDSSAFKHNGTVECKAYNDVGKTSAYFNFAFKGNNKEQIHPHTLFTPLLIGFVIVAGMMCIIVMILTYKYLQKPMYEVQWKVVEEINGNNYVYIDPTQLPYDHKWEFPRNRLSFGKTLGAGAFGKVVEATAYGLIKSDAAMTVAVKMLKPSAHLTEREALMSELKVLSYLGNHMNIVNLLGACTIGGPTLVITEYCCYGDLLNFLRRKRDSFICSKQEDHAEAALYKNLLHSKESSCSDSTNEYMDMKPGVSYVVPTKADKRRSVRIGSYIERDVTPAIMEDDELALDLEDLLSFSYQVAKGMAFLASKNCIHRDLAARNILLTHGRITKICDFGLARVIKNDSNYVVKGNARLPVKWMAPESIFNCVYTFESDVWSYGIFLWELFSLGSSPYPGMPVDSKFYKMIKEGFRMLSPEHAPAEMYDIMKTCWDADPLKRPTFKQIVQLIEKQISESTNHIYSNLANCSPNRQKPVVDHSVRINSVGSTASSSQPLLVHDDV

KIT, sequence (P10721 26-976): as the sequence (P10721 26-976 D816V) above, with V791D counted along it

For `COC(=O)Nc1nc2ccc(C(=O)c3ccccc3)cc2[nH]1` [MBZ, mebendazole], the remaining binding at 10 µM (KIT) is given as 7.4%, the “inhibition of hookworm tubulin (potency in words)” value (hookworm tubulin) is given as “potent nanomolar inhibition” and the “potency on mammalian tubulin relative to hookworm tubulin (fold less)” value (mammalian tubulin) is given as 1000 x. For the same molecule, the remaining binding at 10 µM (KIT (D816V)) was 33%.
